Test results: US20170239253A1, “COMPOSITIONS AND METHODS FOR THE REDUCTION OR PREVENTION OF NON-ALCOHOLIC STEATOHEPATITIS (NASH)” (NuSirt Sciences, Inc., priority 2015, published 2017)

Columns and labels:
[1] = test system: C57Bl/6 mice on high fat diet (HFD); assay: Liver weight after six weeks treatment in chronic high fat diet model of hepatic steatosis; type: in vivo
Description: (§1) Chronic high fat diet was used in C57Bl/6 mice as an experimental model of hepatic steatosis. Male C57/BL6 mice were either maintained on standard low-fat diet (control; LFD; 10% energy from fat) or placed on a high fat (HFD; 60% energy from fat, Research Diets #D12492, Research Diets, Inc., New Brunswick, N.J.) at six weeks of age to induce obesity and fatty infiltration of the liver. […] Animals fed with LFD have normal cellular structure in liver cells. […] Animals were then randomized to treatments for an additional six weeks, with 10 animals per group, as specified in the following examples.
(§2) The 1.5 g/kg diet of metformin corresponds to a therapeutically effective dose of metformin in humans.
(§3) Following induction of hepatic steatosis as described in Example 1, animals were treated for six weeks according to the following treatment groups as depicted in Table 22:
(§4) In this study, the effects of metformin alone (therapeutic dose) vs. combination therapy with sub-therapeutic amounts of metformin and HMB on liver weight and hepatic lipid accumulation were assessed. Following induction of hepatic steatosis as described in Example 1, animals were treated for six weeks according to the following treatment groups as depicted in Table 23:

[2] = test system: C57Bl/6 mice on high fat diet (HFD); assay: Prophylactic treatment concurrent with high fat diet: liver mass and hepatic lipid accumulation; type: in vivo; settings: six weeks, metformin alone 1.5 g/kg
Description: In this study, the prophylactic effects of metformin alone, and various combinations of metformin, leucine, and resveratrol on liver mass and hepatic steatosis are assessed. C57Bl/6 mice are assigned to the following experimental groups as depicted in Table 25: Drug treatments and high fat diet feeding (as described in Example 1) are initiated on the same day and are carried out for six weeks. The effects of the treatments and diet on liver mass and hepatic lipid accumulation are assessed as described in the preceding examples. […] In this study, the prophylactic effects of metformin alone, and various combinations of metformin, HMB, and resveratrol on liver mass and hepatic steatosis are assessed. C57Bl/6 mice are assigned to the following experimental groups as depicted in Table 26: Drug treatments and high fat diet feeding (as described in Example 1) are initiated on the same day and are carried out for six weeks. The effects of the treatments and diet on liver mass and hepatic lipid accumulation are assessed as described in the preceding examples. […] In this study, the prophylactic effects of sub-therapeutic leucine alone, and co-administration of leucine and the PDE5-specific inhibitor icariin on liver mass and hepatic steatosis are assessed. […] The effects of the treatments and diet on liver mass and hepatic lipid accumulation are assessed as described in the preceding examples.

[3] = test system: C57Bl/6 mice on high fat diet (HFD); settings: Example 3; metformin alone 1.5 g/kg diet; leucine 24 g/kg + metformin 0.5 g/kg
Description: Chronic high fat diet was used in C57Bl/6 mice as an experimental model of hepatic steatosis. Male C57/BL6 mice were either maintained on standard low-fat diet (control; LFD; 10% energy from fat) or placed on a high fat (HFD; 60% energy from fat, Research Diets #D12492, Research Diets, Inc., New Brunswick, N.J.) at six weeks of age to induce obesity and fatty infiltration of the liver. […] Animals were then randomized to treatments for an additional six weeks, with 10 animals per group, as specified in the following examples.
In this study, the effects of metformin alone (therapeutic dose) vs. combination therapy with sub-therapeutic amounts of metformin and leucine on liver weight and hepatic lipid accumulation were assessed.

[4] = test system: C57Bl/6 mice on high fat diet (HFD); assay: Histological analysis of hepatic lipid accumulation (hepatic steatosis), high fat diet model
Description: as §1, §2, §3, §4

[5] = 25 mg icariin/kg diet; corresponding to 4 mg/kg body weight/day; cited from earlier work

Row | Compound | effect on liver weight ([1]; Example 2, metformin alone 1.5 g/kg diet, leucine 24 g/kg diet, resveratrol 12.5 mg/kg diet) | effect on liver weight ([1]; Example 3, metformin alone 1.5 g/kg diet, leucine 24 g/kg + metformin 0.25 and 0.5 g/kg, p<0.02 vs. HFD) | effect on liver weight ([1]; Example 4, metformin alone 1.5 g/kg diet, CaHMB 2 g/kg diet + metformin 0.25 and 0.5 g/kg, p<0.03) | HFD-induced increase in liver mass and hepatic lipid accumulation (prophylactic) ([2]; Example 6, treatment and HFD started same day, leucine 24 g/kg + metformin 0.15-0.50 g/kg ± resveratrol 12.5 mg/kg diet) | HFD-induced increase in liver mass and hepatic lipid accumulation (prophylactic) ([2]; Example 7, CaHMB 2 g/kg + metformin 0.15-0.50 g/kg ± resveratrol 12.5 mg/kg diet) | effect on liver triglycerides [3] | hepatic steatosis (histology) ([4]; Example 2, HFD mice, six weeks, metformin alone at therapeutic dosage, combinations at sub-therapeutic dosages) | hepatic steatosis (histology) ([4]; Example 3, metformin alone therapeutic, leucine + metformin 0.5 g/kg) | effect on liver mass or hepatic lipid accumulation [5]
1 | metformin | partially reverse the effect of high fat diet on liver weight | reversed the effect of high fat diet on liver weight back to control levels | reversed the effect of high fat diet on liver weight back to control levels | attenuates the HFD-induced increase in liver mass and hepatic lipid accumulation | attenuates the HFD-induced increase in liver mass and hepatic lipid accumulation | partially reversed the effect of high fat diet on liver triglycerides | partial reversal of the effects of HFD on hepatic steatosis | partially reversed hepatic steatosis | –
2 | COc1ccc(-c2oc3c(CC=C(C)C)c(O[C@@H]4O[C@H](CO)[C@@H](O)[C@H](O)[C@H]4O)cc(O)c3c(=O)c2O[C@@H]2O[C@@H](C)[C@H](O)[C@@H](O)[C@H]2O)cc1 [icariin] | – | – | – | – | – | – | – | – | no effect
